The values that follow come from patent US20230133209A1, “CELL CLASSIFIER CIRCUITS AND METHODS OF USE THEREOF” (Eidgenössische Technische Hochschule Zürich, priority 2020, published 2023).

This test concerns HepG2-LC tumor-bearing mice. In words: Antitumor efficacy in orthotopic HepG2 xenograft tumor model (bioluminescence tumor load, score sheet). It counts as in vivo, mouse.

Experimental: Accordingly, this tumor-targeting program was evaluated in a pilot experiment in the context of orthotopic xenograft tumor model employing HepG2 cells in NSG mice. For the purpose of tumor establishment and tracking, HepG2 cells were stably modified with a lentiviral vector encoding an mCitrine fluorescent protein and firefly luciferase gene, and sorted for homogenous mCitrine expression. The tumors were established by splenic injection of 1M HepG2-LC cells and subsequent spleen dissection.
To gauge antitumor efficacy in vivo, AAV-DJ-HCC.V1-HSV-TK was delivered to HepG2 tumor bearing mice in two consecutive injections, three days apart. The four experimental groups (n=2 in this pilot) included the AAV-DJ-HCC.V1-HSV-TK in combination with GCV regimen (treatment arm), the same vector alone without GCV, sham injection supplemented with GCV regimen, and a sham PBS injection and no GCV.
Next, DJ-pseudotyped AAV vectors harboring the circuit were delivered systemically to HepG2-LC tumor-bearing mice (FIG. 7A). […]
Xenograft mouse liver mouse model: All animal procedures were performed in accordance with the Swiss federal law and institutional guidelines of Eidgenössische Technische Hochschule (ETH) Zurich, and approved by the animal ethics committee of canton Basel-Stadt. […] The tumor growth in mice was monitored by bioluminescence imaging 2-3 times per week (PhotonIMAGER RT, Biospace Lab). […]

Consider `Nc1nc(O)c2ncn(COC(CO)CO)c2n1` [GCV, ganciclovir], for which the “tumor load over time (bioluminescence)” value (n=4 per arm, sham injection + GCV) is recorded as “exponential tumor load increase over time”. In addition, the “antitumor activity (tumor load, bioluminescence)” value (pilot, n=2, sham injection supplemented with GCV regimen) is on record as “absent”.
